From patent publication US20100029507A1, “THE BIOCHIP FOR THE DETECTION OF PHOSPHORYLATION AND THE DETECTION METHOD USING THE SAME” (priority 2006, published 2010) come the findings set out here.

Residues, ends and D or L forms follow the SMILES beside them.

This assay has as its target cAMP-dependent protein kinase (Homo sapiens, UniProt P17612). The assay can be described thus: phosphorylation of chip-fixed substrate by kinase with [γ-32P]ATP, X-ray film detection. It is filed as biochemical. The conditions noted are these: substrate spotted on aldehyde coated slide glass, 10 units cAMP-dependent protein kinase, reaction one hour, sensitized 12~24 hours. As for the experimental part: First, kemptide (Promega, Madison, Wis.) or malic enzyme-kemptide fusion protein was fixed on a slid glass as a substrate. Particularly, kemptide was dissolved in kemptide solution (10% glycerol, 60% PBS, pH 7.5) at the concentration of 0.1 mg/ml and this substrate solution was integrated on the aldehyde coated slid glass by using a microarrayer [Affymetrix 417 Arrayer (Takara Shuzo, Japan)] with leaving 300 μm distance between spots (2500/1 cm^2). The malic enzyme-kemptide prepared in Example 1 was also integrated on the slid glass with leaving 300 μm distance between spots (2500/1 cm^2). At this time, the size of each spot was 50 μm. The biochip integrated with substrate as described above was fixed in a 30° C. humid chamber for one hour. The biochip prepared in Example 2 was washed three times with washing buffer (2 mM KH2PO4, 1 mM Na2HPO4, 200 mM NaCl, 3 mM KCl, pH 7.5) and then reaction between the substrate and kinase was induced on the chip. Particularly, the chip was washed with kinase buffer (50 mM Tris-HCl, 10 mM MgCl2, pH 7.5) once and then pre-incubation was performed in the kinase buffer supplemented with 100 μM of ATP. […] The reacted biochip was sensitized on X-ray film for 12˜24 hours and then phosphorylation by kinase was measured.

`CC(C)C[C@H](NC(=O)[C@H](CO)NC(=O)[C@H](C)NC(=O)[C@H](CCCNC(=N)N)NC(=O)[C@H](CCCNC(=N)N)NC(=O)[C@@H](N)CC(C)C)C(=O)NCC(=O)O` [kemptide] (H-LRRASLG-OH): the “phosphorylation by kinase (spot signal on X-ray film)” value is on record as “spot signals were clearly confirmed”.
